Read-outs that look alike come from different tables or passages of the source.
Legend:
Assay in all cases: KinomeScan kinase panel, single concentration 10 µM
Type in all cases: binding
KinomeScan kinase panel [1] = biological target: T1, KinomeScan kinase panel (Homo sapiens, UniProt P24941); settings: CDK2, 10 µM
T1 construct: purchased DiscoveRx (KinomeScan)

KinomeScan kinase panel [2] = biological target: T2, KinomeScan kinase panel (Homo sapiens, UniProt Q9BUB5); settings: MKNK1, 10 µM; read-out: score (%)
T2 construct: purchased DiscoveRx (KinomeScan)

KinomeScan kinase panel [3] = biological target: T3, KinomeScan kinase panel (Homo sapiens, UniProt P07948); settings: LYN, 10 µM; read-out: score (%)
T3 construct: purchased DiscoveRx (KinomeScan)

KinomeScan kinase panel [4] = biological target: T4, KinomeScan kinase panel (Homo sapiens, UniProt P12931); settings: 10 µM, read-out: score (%)
T4 construct: purchased DiscoveRx (KinomeScan)

KinomeScan kinase panel [5] = biological target: T5, KinomeScan kinase panel (Homo sapiens, UniProt Q96SB4); settings: read-out: score (%)
T5 construct: purchased DiscoveRx (KinomeScan)

KinomeScan kinase panel [6] = biological target: T6, KinomeScan kinase panel (Homo sapiens, UniProt Q13882); settings: read-out: score (%)
T6 construct: purchased DiscoveRx (KinomeScan)

KinomeScan kinase panel [7] = biological target: T7, KinomeScan kinase panel (Homo sapiens, UniProt Q13043); settings: MST1, 10 µM
T7 construct: purchased DiscoveRx (KinomeScan)
T7 sequence (Q13043 1-487): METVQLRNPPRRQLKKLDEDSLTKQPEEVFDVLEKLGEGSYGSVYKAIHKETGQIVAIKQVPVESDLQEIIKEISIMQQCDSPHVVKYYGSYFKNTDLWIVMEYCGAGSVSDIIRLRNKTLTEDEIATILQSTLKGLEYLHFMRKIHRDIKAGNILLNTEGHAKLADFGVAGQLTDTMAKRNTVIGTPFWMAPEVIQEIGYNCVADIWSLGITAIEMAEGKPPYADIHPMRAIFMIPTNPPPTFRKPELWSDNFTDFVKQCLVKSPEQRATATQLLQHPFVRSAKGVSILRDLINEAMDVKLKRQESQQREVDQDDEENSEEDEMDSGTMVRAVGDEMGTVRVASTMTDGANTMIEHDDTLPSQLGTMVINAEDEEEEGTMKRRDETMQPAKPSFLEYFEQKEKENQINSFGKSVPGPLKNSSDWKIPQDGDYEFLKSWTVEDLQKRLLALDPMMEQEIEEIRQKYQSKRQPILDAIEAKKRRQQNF

KinomeScan kinase panel [8] = biological target: T8, KinomeScan kinase panel (Homo sapiens, UniProt P43403); settings: kinase ZAP70; 10 µM; read-out: score (%)
T8 construct: purchased DiscoveRx (KinomeScan)
T8 sequence (P43403 1-619): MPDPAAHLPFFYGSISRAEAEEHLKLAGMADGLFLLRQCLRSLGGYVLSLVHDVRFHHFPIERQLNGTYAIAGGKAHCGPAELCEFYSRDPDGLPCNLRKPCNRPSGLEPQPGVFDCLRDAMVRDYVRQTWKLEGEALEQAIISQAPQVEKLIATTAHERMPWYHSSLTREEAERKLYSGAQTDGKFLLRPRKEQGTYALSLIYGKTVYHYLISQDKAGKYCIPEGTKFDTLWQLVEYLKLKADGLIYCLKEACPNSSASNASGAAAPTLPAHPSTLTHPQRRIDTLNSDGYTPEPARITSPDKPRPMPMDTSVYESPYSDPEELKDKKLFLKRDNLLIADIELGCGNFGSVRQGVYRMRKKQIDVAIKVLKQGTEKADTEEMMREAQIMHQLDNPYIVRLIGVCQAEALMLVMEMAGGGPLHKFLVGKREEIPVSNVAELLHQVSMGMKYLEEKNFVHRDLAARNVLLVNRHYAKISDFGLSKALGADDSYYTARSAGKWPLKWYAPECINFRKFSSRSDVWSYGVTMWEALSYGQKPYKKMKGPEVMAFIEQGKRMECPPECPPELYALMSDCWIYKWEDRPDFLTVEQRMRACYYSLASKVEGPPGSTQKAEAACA

KinomeScan kinase panel [9] = biological target: T9, KinomeScan kinase panel (Homo sapiens, UniProt P49841); settings: GSK3B, 10 µM; read-out: score (%)
T9 construct: purchased DiscoveRx (KinomeScan)

KinomeScan kinase panel [10] = biological target: T10, KinomeScan kinase panel (Homo sapiens, UniProt P49761); settings: CLK3, 10 µM; read-out: score (%)
T10 construct: purchased DiscoveRx (KinomeScan)

KinomeScan kinase panel [11] = biological target: T11, KinomeScan kinase panel (Homo sapiens, UniProt P00519, Q252H); settings: 10 µM, read-out: score (%)
T11 construct: purchased DiscoveRx (KinomeScan)

KinomeScan kinase panel [12] = biological target: T12, KinomeScan kinase panel (Homo sapiens, UniProt O94806); settings: read-out: score (%)
T12 construct: purchased DiscoveRx (KinomeScan)
T12 sequence (O94806 1-890): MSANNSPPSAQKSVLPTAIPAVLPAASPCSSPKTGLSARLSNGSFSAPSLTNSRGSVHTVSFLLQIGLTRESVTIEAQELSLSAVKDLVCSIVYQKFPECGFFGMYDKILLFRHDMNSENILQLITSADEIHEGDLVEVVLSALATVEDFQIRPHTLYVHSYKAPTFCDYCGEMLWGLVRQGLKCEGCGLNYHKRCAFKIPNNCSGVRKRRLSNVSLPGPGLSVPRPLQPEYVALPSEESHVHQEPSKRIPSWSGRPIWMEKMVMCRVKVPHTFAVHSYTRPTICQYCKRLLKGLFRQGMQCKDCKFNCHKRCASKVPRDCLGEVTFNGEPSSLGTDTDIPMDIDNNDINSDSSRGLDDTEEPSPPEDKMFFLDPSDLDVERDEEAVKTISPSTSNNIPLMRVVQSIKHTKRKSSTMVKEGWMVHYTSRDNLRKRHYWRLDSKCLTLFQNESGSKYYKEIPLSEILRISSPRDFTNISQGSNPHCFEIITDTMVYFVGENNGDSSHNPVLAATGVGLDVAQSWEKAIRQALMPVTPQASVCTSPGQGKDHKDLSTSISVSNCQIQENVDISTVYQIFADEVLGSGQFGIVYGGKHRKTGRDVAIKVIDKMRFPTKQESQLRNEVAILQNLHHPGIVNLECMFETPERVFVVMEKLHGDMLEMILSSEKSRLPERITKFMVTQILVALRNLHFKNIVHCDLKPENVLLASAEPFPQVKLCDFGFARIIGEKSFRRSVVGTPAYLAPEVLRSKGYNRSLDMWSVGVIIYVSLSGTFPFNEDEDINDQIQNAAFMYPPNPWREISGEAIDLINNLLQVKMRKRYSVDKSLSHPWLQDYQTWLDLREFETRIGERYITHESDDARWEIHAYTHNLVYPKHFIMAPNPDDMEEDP

KinomeScan kinase panel [13] = biological target: T13, KinomeScan kinase panel (Homo sapiens, UniProt P49760); settings: CLK2, 10 µM; read-out: score (%)
T13 construct: purchased DiscoveRx (KinomeScan)

KinomeScan kinase panel [14] = biological target: T14, KinomeScan kinase panel (Homo sapiens, UniProt Q16584); settings: MLK3, 10 µM
T14 construct: purchased DiscoveRx (KinomeScan)
T14 sequence (Q16584 whole entry): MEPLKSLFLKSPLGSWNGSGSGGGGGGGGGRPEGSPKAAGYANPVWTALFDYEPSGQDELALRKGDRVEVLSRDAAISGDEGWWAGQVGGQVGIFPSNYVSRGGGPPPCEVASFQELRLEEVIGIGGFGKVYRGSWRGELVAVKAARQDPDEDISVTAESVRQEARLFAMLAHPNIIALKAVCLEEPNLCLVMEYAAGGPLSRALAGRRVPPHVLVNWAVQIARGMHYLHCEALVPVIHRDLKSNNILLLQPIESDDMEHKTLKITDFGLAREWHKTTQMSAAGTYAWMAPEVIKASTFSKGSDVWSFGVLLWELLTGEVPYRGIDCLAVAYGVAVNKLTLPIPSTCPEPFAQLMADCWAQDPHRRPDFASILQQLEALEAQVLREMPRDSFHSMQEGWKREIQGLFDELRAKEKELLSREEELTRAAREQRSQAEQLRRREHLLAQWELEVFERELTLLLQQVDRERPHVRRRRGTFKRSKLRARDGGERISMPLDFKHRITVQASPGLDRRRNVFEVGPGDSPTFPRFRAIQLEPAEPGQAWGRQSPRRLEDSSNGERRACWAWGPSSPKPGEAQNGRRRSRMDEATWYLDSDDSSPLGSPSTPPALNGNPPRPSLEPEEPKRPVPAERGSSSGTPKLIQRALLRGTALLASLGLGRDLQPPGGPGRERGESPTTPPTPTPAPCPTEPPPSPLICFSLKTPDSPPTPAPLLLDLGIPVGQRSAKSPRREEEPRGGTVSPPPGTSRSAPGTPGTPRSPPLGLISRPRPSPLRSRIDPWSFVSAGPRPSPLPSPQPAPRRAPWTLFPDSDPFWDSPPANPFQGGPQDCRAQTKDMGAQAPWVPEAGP

T4 sequence (P12931 whole entry): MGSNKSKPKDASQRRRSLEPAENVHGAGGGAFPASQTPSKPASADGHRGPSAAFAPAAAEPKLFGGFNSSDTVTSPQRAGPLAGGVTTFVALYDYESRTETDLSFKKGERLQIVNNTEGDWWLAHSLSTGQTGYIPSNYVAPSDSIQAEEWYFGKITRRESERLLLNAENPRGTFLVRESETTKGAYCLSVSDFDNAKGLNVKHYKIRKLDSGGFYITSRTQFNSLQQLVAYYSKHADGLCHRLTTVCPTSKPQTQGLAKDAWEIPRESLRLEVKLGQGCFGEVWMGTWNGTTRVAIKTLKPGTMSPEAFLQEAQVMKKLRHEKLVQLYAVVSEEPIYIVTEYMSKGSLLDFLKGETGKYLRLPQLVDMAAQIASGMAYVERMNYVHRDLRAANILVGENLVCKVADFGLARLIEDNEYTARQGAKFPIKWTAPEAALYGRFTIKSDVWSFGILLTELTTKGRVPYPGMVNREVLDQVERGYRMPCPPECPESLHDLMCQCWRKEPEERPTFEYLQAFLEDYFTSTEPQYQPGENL
T6 sequence (Q13882 whole entry): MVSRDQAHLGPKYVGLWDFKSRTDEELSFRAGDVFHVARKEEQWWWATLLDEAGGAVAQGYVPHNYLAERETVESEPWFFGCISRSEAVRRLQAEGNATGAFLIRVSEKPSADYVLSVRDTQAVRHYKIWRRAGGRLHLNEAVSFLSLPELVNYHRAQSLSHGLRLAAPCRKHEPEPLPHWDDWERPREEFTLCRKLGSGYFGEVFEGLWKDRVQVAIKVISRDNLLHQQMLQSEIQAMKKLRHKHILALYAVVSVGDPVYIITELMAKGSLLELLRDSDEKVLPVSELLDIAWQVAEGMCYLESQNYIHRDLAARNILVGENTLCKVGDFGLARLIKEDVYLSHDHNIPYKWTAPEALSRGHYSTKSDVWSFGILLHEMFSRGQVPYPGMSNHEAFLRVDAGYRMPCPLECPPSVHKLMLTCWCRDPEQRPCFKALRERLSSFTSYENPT
T5 sequence (Q96SB4 whole entry): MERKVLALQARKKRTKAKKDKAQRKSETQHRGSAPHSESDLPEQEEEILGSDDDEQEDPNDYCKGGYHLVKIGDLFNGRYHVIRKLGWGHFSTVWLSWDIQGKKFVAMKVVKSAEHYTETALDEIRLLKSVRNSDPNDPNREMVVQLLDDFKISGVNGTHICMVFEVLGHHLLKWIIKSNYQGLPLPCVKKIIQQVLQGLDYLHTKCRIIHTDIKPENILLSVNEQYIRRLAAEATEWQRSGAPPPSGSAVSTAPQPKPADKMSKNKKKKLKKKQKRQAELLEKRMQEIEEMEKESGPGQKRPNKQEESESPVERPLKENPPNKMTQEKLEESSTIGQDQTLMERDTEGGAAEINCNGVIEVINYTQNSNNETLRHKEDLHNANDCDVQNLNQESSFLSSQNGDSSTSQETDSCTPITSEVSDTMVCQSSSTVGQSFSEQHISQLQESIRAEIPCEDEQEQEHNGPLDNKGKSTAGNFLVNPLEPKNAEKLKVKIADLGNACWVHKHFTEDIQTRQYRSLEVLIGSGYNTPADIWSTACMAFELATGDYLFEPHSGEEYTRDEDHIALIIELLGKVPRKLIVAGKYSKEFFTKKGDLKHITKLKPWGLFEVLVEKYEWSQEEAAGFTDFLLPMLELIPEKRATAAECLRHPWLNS
T13 sequence (P49760 whole entry): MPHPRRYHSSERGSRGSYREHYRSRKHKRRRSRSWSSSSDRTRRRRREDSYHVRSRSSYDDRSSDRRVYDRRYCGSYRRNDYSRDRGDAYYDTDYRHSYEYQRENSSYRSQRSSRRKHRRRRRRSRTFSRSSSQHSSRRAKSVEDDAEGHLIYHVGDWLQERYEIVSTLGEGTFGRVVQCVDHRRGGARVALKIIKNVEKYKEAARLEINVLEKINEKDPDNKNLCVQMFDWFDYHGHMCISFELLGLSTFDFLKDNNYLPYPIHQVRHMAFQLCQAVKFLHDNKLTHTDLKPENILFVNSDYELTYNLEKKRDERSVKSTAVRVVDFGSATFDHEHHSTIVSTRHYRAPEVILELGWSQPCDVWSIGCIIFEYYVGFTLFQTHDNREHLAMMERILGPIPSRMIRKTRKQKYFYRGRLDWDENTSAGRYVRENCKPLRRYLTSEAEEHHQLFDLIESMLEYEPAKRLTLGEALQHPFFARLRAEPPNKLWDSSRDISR
T3 sequence (P07948 whole entry): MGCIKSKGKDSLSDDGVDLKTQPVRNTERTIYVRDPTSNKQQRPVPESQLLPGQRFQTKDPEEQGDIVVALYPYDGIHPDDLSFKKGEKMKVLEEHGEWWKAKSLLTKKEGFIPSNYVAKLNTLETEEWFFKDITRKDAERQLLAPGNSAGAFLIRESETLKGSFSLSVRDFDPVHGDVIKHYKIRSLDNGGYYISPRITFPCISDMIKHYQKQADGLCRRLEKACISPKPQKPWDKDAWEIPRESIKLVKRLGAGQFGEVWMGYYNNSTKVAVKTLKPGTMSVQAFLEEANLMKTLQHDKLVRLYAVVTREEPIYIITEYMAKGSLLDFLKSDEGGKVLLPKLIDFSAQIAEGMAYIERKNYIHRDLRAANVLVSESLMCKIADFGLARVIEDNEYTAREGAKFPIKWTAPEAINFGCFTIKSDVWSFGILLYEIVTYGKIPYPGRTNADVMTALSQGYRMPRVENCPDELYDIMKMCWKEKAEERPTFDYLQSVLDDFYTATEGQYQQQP
T9 sequence (P49841 whole entry): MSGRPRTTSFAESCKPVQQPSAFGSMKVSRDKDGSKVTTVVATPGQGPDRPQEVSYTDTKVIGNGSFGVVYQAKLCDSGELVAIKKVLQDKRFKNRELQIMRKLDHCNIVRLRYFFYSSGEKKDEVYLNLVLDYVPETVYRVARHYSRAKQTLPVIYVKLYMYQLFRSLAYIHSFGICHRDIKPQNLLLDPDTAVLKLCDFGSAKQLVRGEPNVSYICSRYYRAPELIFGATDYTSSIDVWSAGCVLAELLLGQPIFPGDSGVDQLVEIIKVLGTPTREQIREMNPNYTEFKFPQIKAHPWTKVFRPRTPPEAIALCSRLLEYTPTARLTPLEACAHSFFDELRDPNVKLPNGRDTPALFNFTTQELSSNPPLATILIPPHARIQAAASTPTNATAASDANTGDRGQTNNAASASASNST
T2 sequence (Q9BUB5 whole entry): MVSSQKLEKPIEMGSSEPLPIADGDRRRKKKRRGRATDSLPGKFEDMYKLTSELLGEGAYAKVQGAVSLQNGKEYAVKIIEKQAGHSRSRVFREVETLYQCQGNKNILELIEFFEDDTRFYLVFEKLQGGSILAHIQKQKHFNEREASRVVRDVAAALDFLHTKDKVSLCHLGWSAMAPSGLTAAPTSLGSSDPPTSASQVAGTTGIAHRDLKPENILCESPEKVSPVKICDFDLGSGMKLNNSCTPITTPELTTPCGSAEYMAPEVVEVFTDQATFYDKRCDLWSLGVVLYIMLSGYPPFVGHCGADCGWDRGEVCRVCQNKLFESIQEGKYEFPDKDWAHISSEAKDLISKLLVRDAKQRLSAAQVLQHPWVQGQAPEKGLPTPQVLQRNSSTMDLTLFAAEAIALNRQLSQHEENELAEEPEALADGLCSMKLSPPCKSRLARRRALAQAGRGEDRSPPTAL
T10 sequence (P49761 whole entry): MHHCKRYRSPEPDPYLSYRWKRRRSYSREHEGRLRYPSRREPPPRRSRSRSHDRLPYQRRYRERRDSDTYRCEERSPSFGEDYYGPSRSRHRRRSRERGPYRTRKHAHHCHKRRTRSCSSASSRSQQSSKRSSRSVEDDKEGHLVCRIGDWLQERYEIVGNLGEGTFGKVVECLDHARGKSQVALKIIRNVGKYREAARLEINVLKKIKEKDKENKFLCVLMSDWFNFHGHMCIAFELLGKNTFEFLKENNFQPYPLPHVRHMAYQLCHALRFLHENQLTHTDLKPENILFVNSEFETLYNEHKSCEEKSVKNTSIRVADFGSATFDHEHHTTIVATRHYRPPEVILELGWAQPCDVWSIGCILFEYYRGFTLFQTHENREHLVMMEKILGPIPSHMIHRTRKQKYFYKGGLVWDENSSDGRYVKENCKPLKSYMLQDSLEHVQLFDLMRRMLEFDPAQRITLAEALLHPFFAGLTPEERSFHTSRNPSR

| SMILES | score (%) (KinomeScan kinase panel [1]) | remaining binding at 10 µM (KinomeScan kinase panel [2]) [%] | remaining binding at 10 µM (KinomeScan kinase panel [3]) [%] | remaining binding at 10 µM (KinomeScan kinase panel [4]; kinase SRC) [%] | remaining binding at 10 µM (KinomeScan kinase panel [5]; kinase SRPK1, 10 µM) [%] | remaining binding at 10 µM (KinomeScan kinase panel [6]; BRK, 10 µM) [%] | score (%) (KinomeScan kinase panel [7]) | remaining binding at 10 µM (KinomeScan kinase panel [8]) [%] | remaining binding at 10 µM (KinomeScan kinase panel [9]) [%] | remaining binding at 10 µM (KinomeScan kinase panel [10]) [%] | remaining binding at 10 µM (KinomeScan kinase panel [11]; ABL1(Q252H)) [%] | remaining binding at 10 µM (KinomeScan kinase panel [12]; PRKD3, 10 µM) [%] | remaining binding at 10 µM (KinomeScan kinase panel [13]) [%] | score (%) (KinomeScan kinase panel [14]) | remaining binding at 10 µM (KinomeScan kinase panel [4]; SRC) [%] | remaining binding at 10 µM (KinomeScan kinase panel [5]; SRPK1, 10 µM) [%] | remaining binding at 10 µM (KinomeScan kinase panel [6]; PTK6, 10 µM) [%] | remaining binding at 10 µM (KinomeScan kinase panel [11]; ABL1(Q252H)-nonphosphorylated) [%] | remaining binding at 10 µM (KinomeScan kinase panel [11]; ABL1(Q252H)-phosphorylated) [%] | remaining binding at 10 µM (KinomeScan kinase panel [12]; kinase PRKD3, 10 µM) [%] |
| --- | --- | --- | --- | --- | --- | --- | --- | --- | --- | --- | --- | --- | --- | --- | --- | --- | --- | --- | --- | --- |
| CCN1CCN(Cc2ccc(NC(=O)c3ccc(C)c(NC(=O)c4cncc(-c5cccs5)c4)c3)cc2C(F)(F)F)CC1 [ALW-II-41-27] | nb (Hits values higher than 30% were considered negative (no binding: nb)) | 14 | 0.1 | 0.1 | > 30 | 8.2 | 21 | > 30 | > 30 | > 30 | 0.25 | > 30 | 2.4 | nb (Hits values higher than 30% were considered negative (no binding: nb)) |  |  |  |  |  |  |
| CCN1CCN(Cc2ccc(NC(=O)c3ccc(C)c(/C=C/c4cnc5[nH]ccc5c4Cl)c3)cc2C(F)(F)F)CC1 [HG-6-63-01, (E)-3-(2-(4-chloro-1H-pyrrolo[2,3-b]pyridin-5-yl)vinyl)-N-(4-((4-ethylpiperazin-1-yl)methyl)-3-(trifluoromethyl)phenyl)-4-methylbenzamide] | nb (Hits values higher than 30% were considered negative (no binding: nb)) | > 30 | 0.25 |  |  |  | 26 | > 30 | > 30 | > 30 | 0.1 | > 30 | > 30 | 0.8% | 0.25 | 0.25 | 17 |  |  |  |
| CCN1CCN(Cc2ccc(NC(=O)c3ccc(C)c(C#Cc4cccnc4)c3)cc2C(F)(F)F)CC1 [XMD15-44] | 10% | 0.25 | 0.05 | 0 | 100 | 2.8 | 23 | 62 | > 30 | > 30 |  |  | > 30 | 17% |  |  |  | 6.4 | 0.7 | 22 |
